Reference: patent US20120220581A1, “IMIDAZO[1,2-b]PYRIDAZINE DERIVATIVES AND THEIR USE AS PDE10 INHIBITORS” (Janssen-Cilag, S.A., priority 2009, published 2012)

Key:
[1] = target: T1, Rat recombinant PDE10A (rPDE10A2) (Rattus norvegicus, UniProt Q9QYJ6); assay: In vitro assay PDE10A (SPA, 3H-cAMP); assay type: biochemical; details: pIC50 corresponds to the −log IC50 expressed in mol/L; read-out: PDE10A2 pIC50 (converted)
T1 construct: inferred from the Ni metal chelate purification; made in house; host or cells: Sf9 insect cells (baculovirus)
T1 sequence (Q9QYJ6 1-794): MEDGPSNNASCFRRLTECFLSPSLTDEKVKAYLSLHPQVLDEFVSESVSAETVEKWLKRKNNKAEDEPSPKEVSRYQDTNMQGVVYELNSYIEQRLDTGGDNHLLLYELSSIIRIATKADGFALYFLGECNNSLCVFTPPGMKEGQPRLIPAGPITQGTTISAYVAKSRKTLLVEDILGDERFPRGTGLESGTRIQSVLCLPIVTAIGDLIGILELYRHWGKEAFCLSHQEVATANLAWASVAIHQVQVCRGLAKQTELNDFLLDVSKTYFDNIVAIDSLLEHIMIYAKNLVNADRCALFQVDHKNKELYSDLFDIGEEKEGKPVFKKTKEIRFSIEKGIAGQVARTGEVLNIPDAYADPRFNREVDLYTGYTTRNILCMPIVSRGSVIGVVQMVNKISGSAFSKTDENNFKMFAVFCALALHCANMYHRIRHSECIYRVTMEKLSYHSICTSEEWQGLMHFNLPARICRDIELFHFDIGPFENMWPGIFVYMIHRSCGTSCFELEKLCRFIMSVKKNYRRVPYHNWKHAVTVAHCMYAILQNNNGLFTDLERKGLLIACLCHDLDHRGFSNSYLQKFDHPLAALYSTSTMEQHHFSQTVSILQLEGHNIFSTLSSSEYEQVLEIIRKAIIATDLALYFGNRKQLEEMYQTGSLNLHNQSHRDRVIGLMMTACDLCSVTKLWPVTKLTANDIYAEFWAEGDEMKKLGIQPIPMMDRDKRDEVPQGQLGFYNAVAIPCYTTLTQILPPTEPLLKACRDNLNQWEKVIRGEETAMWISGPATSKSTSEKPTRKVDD
Method: Rat recombinant PDE10A (rPDE10A2) was expressed in Sf9 cells using a recombinant rPDE10A baculovirus construct. Cells were harvested after 48 h of infection and the rPDE10A protein was purified by metal chelate chromatography on Ni-sepharose 6FF. Tested compounds were dissolved and diluted in 100% DMSO to a concentration 100 fold of the final concentration in the assay. Compound dilutions (0.4 μl) were added in 384 well plates to 20 μl of incubation buffer (50 mM Tris pH 7.8, 8.3 mM MgCl2, 1.7 mM EGTA). 10 μl of rPDE10A enzyme in incubation buffer was added and the reaction was started by addition of 10 μl substrate to a final concentration of 60 nM cAMP and 0.008 μCi ^3H-cAMP. The reaction was incubated for 60 minutes at room temperature. […] After sedimentation of the beads during 30 minutes the radioactivity was measured in a Perkin Elmer Topcount scintillation counter and results were expressed as cpm. For blanc values the enzyme was omitted from the reaction and replaced by incubation buffer. Control values were obtained by addition of a final concentration of 1% DMSO instead of compound. The same assay principle is applied for the measurement of the affinity of the compound for other members of the PDE family with appropriate modifications in incubation buffer, substrate concentration, incubation time and stop solution.

[2] = test system: apomorphine-induced stereotypy in rats; assay: Apomorphine-induced stereotypy in rats (APO); assay type: in vivo; details: Rattus norvegicus, n.d.: found not active at threshold dose 2.5 mg/kg or 10 mg/kg (a)
Method: Apomorphine (1.0 mg/kg, i.v.)-induced stereotypy (compulsive sniffing, licking, chewing) was scored every 5 min over the first hour after injection of apomorphine, following a 1 hour interval pre-treatment with the test compound. The score system was: (3) pronounced, (2) moderate, (1) slight, and (0) absent.

[3] = po, * not soluble, tested orally as a suspension

IC50 [1] [nM] | Compound | ED50 ([2]; not further tested) [mg/kg] | ED50 [2, 3] [mg/kg]
33.9 | CCOCCc1ccc(-c2c(C)nc3c(N4CCOCC4)ccnn23)cn1 [compound 25, 3-[6-(2-ethoxyethyl)-3-pyridinyl]-2-methyl-8-(4-morpholinyl)-imidazo[1,2-b]pyridazine] | – | > 2.5
30.9 | COCCc1cc(-c2c(C)nc3c(N4CCOCC4)ccnn23)ccn1 [compound 26, 3-[2-(2-methoxyethyl)-4-pyridinyl]-2-methyl-8-(4-morpholinyl)-imidazo[1,2-b]pyridazine] | > 2.5 | –
31.6 | Cc1nc2c(N3CCOCC3)ccnn2c1-c1ccc(C2CCOCC2)nc1 [compound 27, 2-methyl-8-(4-morpholinyl)-3-[6-(tetrahydro-2H-pyran-4-yl)-3-pyridinyl]-imidazo[1,2-b]pyridazine] | > 2.5 | –
117 | CO[C@@H]1CCN(c2ccc(-c3c(C)nc4c(N5CCOCC5)ccnn34)cn2)C1 [compound 34, 3-[6-[(3R)-3-methoxy-1-pyrrolidinyl]-3-pyridinyl]-2-methyl-8-(4-morpholinyl)-imidazo[1,2-b]pyridazine] | > 2.5 | –
28.8 | COC(C)(C)Cn1cc(-c2c(C3CC3)nc3c(N4CCOCC4)ccnn23)cn1 [compound 38, 2-cyclopropyl-3-[1-(2-methoxy-2-methylpropyl)-1H-pyrazol-4-yl]-8-(4-morpholinyl)-imidazo[1,2-b]pyridazine] | > 2.5 | –
70.8 | Cc1ccc(-c2c(C)nc3c(N4CCOCC4)ccnn23)cn1 [compound 39, 2-methyl-3-(6-methyl-3-pyridinyl)-8-(4-morpholinyl)-imidazo[1,2-b]pyridazine] | > 2.5 | –
117 | COC(C)(C)Cc1ccc(-c2c(C)nc3c(-c4ccncc4)cc(C4CC4)nn23)cn1 [compound 40, 6-cyclopropyl-3-[6-(2-methoxy-2-methylpropyl)-3-pyridinyl]-2-methyl-8-(4-pyridinyl)-imidazo[1,2-b]pyridazine] | > 2.5 | –
407 | COCCOc1ccc(-c2c(C)nc3c(N4CCOCC4)cc(C4CC4)nn23)cn1 [compound 41, 6-cyclopropyl-3-[6-(2-methoxyethoxy)-3-pyridinyl]-2-methyl-8-(4-morpholinyl)-imidazo[1,2-b]pyridazine] | > 2.5 | –
93.3 | COCCOc1cncc(-c2c(C)nc3c(N4CCOCC4)cc(C4CC4)nn23)c1 [compound 42, 6-cyclopropyl-3-[5-(2-methoxyethoxy)-3-pyridinyl]-2-methyl-8-(4-morpholinyl)-imidazo[1,2-b]pyridazine] | > 2.5 | –
191 | COC(C)(C)Cc1ccc(-c2c(C)nc3c(N4CCOCC4)cc(C4CC4)nn23)cn1 [compound 43, 6-cyclopropyl-3-[6-(2-methoxy-2-methylpropyl)-3-pyridinyl]-2-methyl-8-(4-morpholinyl)-imidazo[1,2-b]pyridazine] | > 2.5 | –
45.7 | COCCOc1ccc(-c2c(C3CC3)nc3c(-c4ccncc4)ccnn23)cn1 [compound 44, 2-cyclopropyl-3-[6-(2-methoxyethoxy)-3-pyridinyl]-8-(4-pyridinyl)-imidazo[1,2-b]pyridazine] | > 2.5 | –

Second part, the molecule before the results:

Compound | IC50 [1] [nM] | ED50 ([2]; not further tested) [mg/kg] | ED50 [2, 3] [mg/kg]
COCCCc1ccc(-c2c(C)nc3c(N4CCOCC4)ccnn23)cn1 [compound 2, 3-[6-(3-methoxypropyl)-3-pyridinyl]-2-methyl-8-(4-morpholinyl)-imidazo[1,2-b]pyridazine] | 46.8 | > 2.5 | –
COCC(C)(C)c1ccc(-c2c(C)nc3c(N4CCOCC4)ccnn23)cn1 [compound 4, 3-[6-(2-methoxy-1,1-dimethylethyl)-3-pyridinyl]-2-methyl-8-(4-morpholinyl)-imidazo[1,2-b]pyridazine] | 40.7 | > 2.5 | –
CCOC(C)(C)c1ccc(-c2c(C)nc3c(N4CCOCC4)ccnn23)cn1 [compound 5, 3-[6-(1-ethoxy-1-methylethyl)-3-pyridinyl]-2-methyl-8-(4-morpholinyl)-imidazo[1,2-b]pyridazine] | 19.1 | > 2.5 | –
COC(C)(C)c1ccc(-c2c(C)nc3c(N4CCOCC4)ccnn23)cn1 [compound 6, 3-[6-(1-methoxy-1-methylethyl)-3-pyridinyl]-2-methyl-8-(4-morpholinyl)-imidazo[1,2-b]pyridazine] | 23.4 | > 2.5 | –
COCCOc1ncc(-c2c(C)nc3c(-c4ccncc4)ccnn23)cc1C [compound 8, 3-[6-(2-methoxyethoxy)-5-methyl-3-pyridinyl]-2-methyl-8-(4-pyridinyl)-imidazo[1,2-b]pyridazine] | 162 | > 2.5 | –
COCCOc1ccc(-c2c(C)nc3c(-c4cccnc4)ccnn23)cn1 [compound 9, 3-[6-(2-methoxyethoxy)-3-pyridinyl]-2-methyl-8-(3-pyridinyl)-imidazo[1,2-b]pyridazine] | 112 | > 2.5 | –
COCCc1ccc(-c2cnc3c(N4CCOCC4)ccnn23)cn1 [compound 11, 3-[6-(2-methoxyethyl)-3-pyridinyl]-8-(4-morpholinyl)-imidazo[1,2-b]pyridazine] | 195 | > 2.5 | –
COCCc1ccc(-c2c(OC)nc3c(N4CCOCC4)ccnn23)cn1 [compound 12, 2-methoxy-3-[6-(2-methoxyethyl)-3-pyridinyl]-8-(4-morpholinyl)-imidazo[1,2-b]pyridazine] | 224 | > 2.5 | –
COCCc1ccc(-c2c(C)nc3c(N4CCOCC4)cc(C4CC4)nn23)cn1 [compound 13, 6-cyclopropyl-3-[6-(2-methoxyethyl)-3-pyridinyl]-2-methyl-8-(4-morpholinyl)-imidazo[1,2-b]pyridazine] | 195 | > 2.5 | –
COCCc1ccc(-c2c(C)nc3c(-c4ccncc4)cc(C4CC4)nn23)cn1 [compound 14, 6-cyclopropyl-3-[6-(2-methoxyethyl)-3-pyridinyl]-2-methyl-8-(4-pyridinyl)-imidazo[1,2-b]pyridazine] | 120 | > 2.5 | –
COCCc1ccc(-c2c(C3CC3)nc3c(N4CCOCC4)cc(C)nn23)cn1 [compound 15, 2-cyclopropyl-3-[6-(2-methoxyethyl)-3-pyridinyl]-6-methyl-8-(4-morpholinyl)-imidazo[1,2-b]pyridazine] | 302 | – | > 2.5
CCOCc1ccc(-c2c(C)nc3c(N4CCOCC4)ccnn23)cn1 [compound 17, 3-[6-(ethoxymethyl)-3-pyridinyl]-2-methyl-8-(4-morpholinyl)-imidazo[1,2-b]pyridazine] | 55 | – | > 2.5
COCCc1ccc(-c2c(C)nc3c(-c4ccncc4)ccnn23)cn1 [compound 20, 3-[6-(2-methoxyethyl)-3-pyridinyl]-2-methyl-8-(4-pyridinyl)-imidazo[1,2-b]pyridazine] | 27.5 | > 2.5 | –
COCCc1ccc(-c2c(C)nc3c(N4CCOCC4)cc(C)nn23)cn1 [compound 23, 3-[6-(2-methoxyethyl)-3-pyridinyl]-2,6-dimethyl-8-(4-morpholinyl)-imidazo[1,2-b]pyridazine] | 112 | > 2.5 | –
COCCc1ccc(-c2c(C)nc3c(-c4ccncc4)cc(C)nn23)cn1 [compound 24, 3-[6-(2-methoxyethyl)-3-pyridinyl]-2,6-dimethyl-8-(4-pyridinyl)-imidazo[1,2-b]pyridazine] | 79.4 | > 2.5 | –
